{
  "source": "paper PMC10275055",
  "about": "“Preventing recurrence in Sonic Hedgehog Subgroup Medulloblastoma using the OLIG2 inhibitor CT-179” (Research Square, 2023)",
  "key": {"[1]": {"tested_on": "OLIG2-driven transcription (human LHX8 promoter)", "assay": "LHX8 promoter luciferase reporter assay in Daoy cells", "format": "cell-based", "settings": "OLIG2 overexpression, 250 nM, 24 hours", "source_text": "Promoter region of human LHX8 was amplified by PCR from human genomic DNA extracted from Med-813luci cells with primers shown in STAR METHODS. The promoter region was inserted into the pGL3-Basic luciferase-reporter vector (Promega). Flag-OLIG2 were synthesised as a gBlock flanked by the Nhel and BamHI restriction enzyme sites (Integrated DNA Technologies, Singapore). The gBlock was restriction digested and ligated into the expression vector, pLEX_307 (a gift from Joseph Rosenbluh, Monash University, Australia) to form pLX307/FLAG-OLIG2. Firefly luciferase-reporter construct (300 ng, pGL3-Basic or pGL3-LHX8), pRL Renilla luciferase SV40 Control Reporter Vector (Promega, 50 ng), and pLX307/Flag-OLIG2 (300 ng) or pLX307/empty vector (300 ng) were reverse co-transfected with Daoy cells (1 × 10^5/well) in 24-well plates using Lipofectamine™ 3000 (Invitrogen). CT-179 (250 nM) was added and incubated for 24 hours. The luciferase activity was examined using Dual-Glo® Luciferase Assay System (Promega) according to the manufacturer’s instructions, and the signal was normalised to vector controls."}, "[2]": {"molecular_target": "T1, Discoidin Domain Receptor Tyrosine Kinase 2 (DDR2) (Homo sapiens, UniProt Q16832)", "T1 sequence (Q16832 22-855)": "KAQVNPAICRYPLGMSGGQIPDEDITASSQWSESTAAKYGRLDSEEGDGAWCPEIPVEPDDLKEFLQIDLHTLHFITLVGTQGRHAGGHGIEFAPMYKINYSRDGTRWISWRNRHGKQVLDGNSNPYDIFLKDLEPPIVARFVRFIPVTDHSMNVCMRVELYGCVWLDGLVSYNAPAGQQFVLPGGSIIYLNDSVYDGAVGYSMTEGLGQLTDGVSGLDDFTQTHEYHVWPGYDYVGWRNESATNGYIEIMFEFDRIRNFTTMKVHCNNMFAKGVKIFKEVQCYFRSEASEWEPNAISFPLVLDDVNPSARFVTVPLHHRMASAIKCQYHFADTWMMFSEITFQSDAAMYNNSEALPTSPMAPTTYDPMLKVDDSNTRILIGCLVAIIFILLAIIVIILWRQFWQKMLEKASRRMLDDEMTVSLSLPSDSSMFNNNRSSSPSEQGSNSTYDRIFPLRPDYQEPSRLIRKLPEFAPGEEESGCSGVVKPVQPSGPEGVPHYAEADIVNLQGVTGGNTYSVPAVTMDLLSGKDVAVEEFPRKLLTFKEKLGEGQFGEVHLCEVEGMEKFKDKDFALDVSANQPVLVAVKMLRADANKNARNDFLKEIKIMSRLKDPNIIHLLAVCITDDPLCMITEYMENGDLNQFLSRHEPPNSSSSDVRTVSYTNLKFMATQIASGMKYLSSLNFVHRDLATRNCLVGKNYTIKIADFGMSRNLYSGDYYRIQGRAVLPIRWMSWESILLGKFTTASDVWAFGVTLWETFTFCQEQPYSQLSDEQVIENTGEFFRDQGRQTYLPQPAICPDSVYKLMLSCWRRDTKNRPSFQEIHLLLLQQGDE", "assay": "Kinase profiling (KINOMEscan / SelectScreen), DDR2", "format": "biochemical", "settings": "ATP equal to Km", "experimental": "Effect of CT-179 on protein kinase activity was evaluated using the Thermofisher Scientific SelectScreen Kinase Profiling Service. Over 400 human protein kinases were tested in the presence of 1 μM final concentration of CT-179 at an ATP concentration equal to the known ATP Km for each kinase. The experiment was done by Curtana Pharmaceuticals. Data is presented as percentage of inhibition of enzyme activity. Software CORAL was used to make the kinome tree, which is available from: http://phanstiel-lab.med.unc.edu/CORAL/."}},
  "data": [
    {"molecule": "Cc1cc(NCCCN(C)C)nc(NC(=O)Nc2ccc(Cl)c(Cl)c2)n1", "note": "[CT-179]", "values": [
      {"measurement": "luciferase expression (LHX8 promoter reporter)", "setting": "[1]", "value": "significantly decreased"},
      {"measurement": "inhibition at 1 µM", "setting": "[2]", "value": 80, "unit": "%"}
    ]}
  ]
}
